According to ChEMBL document CHEMBL4507268 (2021):

Tests used:
[1] = target: Serine/threonine-protein kinase PAK 4 (Homo sapiens) (UniProt O96013); details: Compound concentration 1000.0 nM
[2] = target: T1, Ephrin type-B receptor 1 (Homo sapiens) (UniProt P54762); details: Compound concentration 1000.0 nM
T1 sequence (whole entry): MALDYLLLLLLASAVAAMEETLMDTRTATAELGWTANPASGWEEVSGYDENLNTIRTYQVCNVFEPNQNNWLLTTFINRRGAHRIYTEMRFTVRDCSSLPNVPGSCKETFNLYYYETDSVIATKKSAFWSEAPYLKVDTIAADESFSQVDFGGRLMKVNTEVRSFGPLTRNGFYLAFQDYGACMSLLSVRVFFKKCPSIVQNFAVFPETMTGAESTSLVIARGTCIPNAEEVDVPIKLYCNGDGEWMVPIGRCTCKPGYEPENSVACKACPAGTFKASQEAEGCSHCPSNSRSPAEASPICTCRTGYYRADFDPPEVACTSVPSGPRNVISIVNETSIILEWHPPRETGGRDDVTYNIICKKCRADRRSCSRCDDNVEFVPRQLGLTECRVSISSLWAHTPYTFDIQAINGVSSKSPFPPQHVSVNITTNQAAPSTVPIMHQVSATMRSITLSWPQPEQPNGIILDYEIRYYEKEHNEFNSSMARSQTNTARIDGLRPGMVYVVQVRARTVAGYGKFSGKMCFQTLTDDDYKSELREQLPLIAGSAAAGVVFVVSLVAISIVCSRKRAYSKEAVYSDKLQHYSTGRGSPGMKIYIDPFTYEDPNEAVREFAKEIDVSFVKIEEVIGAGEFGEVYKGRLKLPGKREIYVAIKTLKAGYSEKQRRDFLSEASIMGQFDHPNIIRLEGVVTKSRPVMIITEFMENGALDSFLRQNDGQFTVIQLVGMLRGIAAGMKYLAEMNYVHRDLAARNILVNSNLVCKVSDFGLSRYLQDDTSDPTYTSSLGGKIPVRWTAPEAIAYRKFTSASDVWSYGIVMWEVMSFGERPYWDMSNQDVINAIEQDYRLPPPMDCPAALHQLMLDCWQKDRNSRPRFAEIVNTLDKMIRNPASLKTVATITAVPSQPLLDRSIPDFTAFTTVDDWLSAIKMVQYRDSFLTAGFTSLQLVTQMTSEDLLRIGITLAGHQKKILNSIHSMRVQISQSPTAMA

[3] = target: T2, Homeodomain-interacting protein kinase 4 (Homo sapiens) (UniProt Q8NE63); details: Compound concentration 1000.0 nM
T2 sequence (whole entry): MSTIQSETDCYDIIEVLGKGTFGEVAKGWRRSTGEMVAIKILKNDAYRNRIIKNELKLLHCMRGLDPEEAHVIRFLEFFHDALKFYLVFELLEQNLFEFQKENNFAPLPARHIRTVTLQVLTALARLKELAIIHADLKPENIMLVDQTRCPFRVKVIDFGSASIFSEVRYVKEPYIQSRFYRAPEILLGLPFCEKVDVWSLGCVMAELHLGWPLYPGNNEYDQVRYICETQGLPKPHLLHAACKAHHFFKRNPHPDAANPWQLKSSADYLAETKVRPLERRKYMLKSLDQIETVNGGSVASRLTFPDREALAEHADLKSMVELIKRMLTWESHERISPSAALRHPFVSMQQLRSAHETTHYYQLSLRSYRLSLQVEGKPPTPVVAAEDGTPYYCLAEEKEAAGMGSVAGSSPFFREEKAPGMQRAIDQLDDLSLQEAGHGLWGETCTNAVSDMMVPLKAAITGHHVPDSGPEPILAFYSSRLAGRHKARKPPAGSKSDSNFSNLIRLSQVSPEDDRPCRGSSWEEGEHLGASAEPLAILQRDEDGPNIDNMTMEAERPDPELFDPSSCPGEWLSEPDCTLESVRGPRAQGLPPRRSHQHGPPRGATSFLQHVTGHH

[4] = target: Casein kinase I isoform alpha (Homo sapiens) (UniProt P48729); details: Compound concentration 1000.0 nM
Sequence of Casein kinase I isoform alpha (Homo sapiens) (P48729 2-337 limits assumed): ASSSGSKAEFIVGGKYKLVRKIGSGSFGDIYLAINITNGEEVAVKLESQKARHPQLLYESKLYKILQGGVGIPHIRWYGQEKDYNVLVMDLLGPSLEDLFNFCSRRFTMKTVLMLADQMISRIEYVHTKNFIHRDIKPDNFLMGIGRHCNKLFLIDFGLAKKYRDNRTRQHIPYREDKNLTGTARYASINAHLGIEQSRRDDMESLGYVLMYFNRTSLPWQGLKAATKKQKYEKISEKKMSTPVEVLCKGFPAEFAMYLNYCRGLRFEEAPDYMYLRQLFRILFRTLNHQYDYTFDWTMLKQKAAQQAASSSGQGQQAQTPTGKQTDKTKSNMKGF

[5] = target: Ephrin type-A receptor 7 (Homo sapiens) (UniProt Q15375); details: Compound concentration 1000.0 nM
Sequence of Ephrin type-A receptor 7 (Homo sapiens) (Q15375 28-998 limits assumed): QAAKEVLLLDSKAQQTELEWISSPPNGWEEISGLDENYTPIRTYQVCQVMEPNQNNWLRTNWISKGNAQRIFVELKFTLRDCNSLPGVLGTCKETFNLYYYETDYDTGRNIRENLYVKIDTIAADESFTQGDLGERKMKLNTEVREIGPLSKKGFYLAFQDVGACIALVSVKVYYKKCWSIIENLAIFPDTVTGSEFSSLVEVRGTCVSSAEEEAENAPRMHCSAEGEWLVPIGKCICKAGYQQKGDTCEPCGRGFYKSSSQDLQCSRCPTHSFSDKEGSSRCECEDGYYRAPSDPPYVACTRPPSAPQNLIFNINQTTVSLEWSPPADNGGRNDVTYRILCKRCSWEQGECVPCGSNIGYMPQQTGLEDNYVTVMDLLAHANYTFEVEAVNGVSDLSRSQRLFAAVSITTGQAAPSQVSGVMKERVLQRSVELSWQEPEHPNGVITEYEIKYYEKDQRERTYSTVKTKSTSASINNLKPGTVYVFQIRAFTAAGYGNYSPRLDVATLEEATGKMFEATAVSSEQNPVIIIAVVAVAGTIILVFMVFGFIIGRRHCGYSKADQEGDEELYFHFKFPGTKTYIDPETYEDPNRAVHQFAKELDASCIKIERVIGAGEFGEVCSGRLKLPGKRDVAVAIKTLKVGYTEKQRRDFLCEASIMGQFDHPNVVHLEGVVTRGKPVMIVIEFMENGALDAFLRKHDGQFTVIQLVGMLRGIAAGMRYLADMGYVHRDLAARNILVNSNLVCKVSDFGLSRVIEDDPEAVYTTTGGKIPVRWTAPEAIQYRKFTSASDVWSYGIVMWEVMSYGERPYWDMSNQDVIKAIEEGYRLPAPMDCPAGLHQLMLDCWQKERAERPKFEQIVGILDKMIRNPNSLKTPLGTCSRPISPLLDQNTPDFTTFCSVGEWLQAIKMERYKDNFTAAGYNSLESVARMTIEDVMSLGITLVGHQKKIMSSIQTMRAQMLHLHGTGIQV

[6] = target: Ribosomal protein S6 kinase alpha-6 (Homo sapiens) (UniProt Q9UK32); details: Compound concentration 1000.0 nM
Sequence of Ribosomal protein S6 kinase alpha-6 (Homo sapiens) (Q9UK32 whole entry): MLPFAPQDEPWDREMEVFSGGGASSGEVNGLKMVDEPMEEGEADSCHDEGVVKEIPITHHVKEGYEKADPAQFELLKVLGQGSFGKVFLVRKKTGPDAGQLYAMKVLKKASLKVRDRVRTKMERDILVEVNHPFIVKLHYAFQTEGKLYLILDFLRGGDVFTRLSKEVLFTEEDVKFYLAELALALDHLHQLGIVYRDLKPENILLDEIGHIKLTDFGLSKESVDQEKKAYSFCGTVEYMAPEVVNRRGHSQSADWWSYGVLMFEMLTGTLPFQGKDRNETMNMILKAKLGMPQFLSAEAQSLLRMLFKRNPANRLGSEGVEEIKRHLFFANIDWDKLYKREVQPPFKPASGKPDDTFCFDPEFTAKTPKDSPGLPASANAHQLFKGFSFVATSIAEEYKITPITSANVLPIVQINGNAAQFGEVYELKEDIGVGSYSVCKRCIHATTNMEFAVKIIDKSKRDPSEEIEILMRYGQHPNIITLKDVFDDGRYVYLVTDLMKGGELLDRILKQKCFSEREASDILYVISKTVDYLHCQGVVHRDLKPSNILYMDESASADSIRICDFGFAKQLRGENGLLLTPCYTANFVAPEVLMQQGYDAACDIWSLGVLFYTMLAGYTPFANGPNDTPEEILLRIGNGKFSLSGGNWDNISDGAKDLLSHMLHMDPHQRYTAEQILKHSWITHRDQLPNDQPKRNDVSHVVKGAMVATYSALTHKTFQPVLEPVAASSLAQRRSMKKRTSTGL

[7] = target: T3, Inhibitor of nuclear factor kappa-B kinase subunit epsilon (Homo sapiens) (UniProt Q14164); details: Compound concentration 1000.0 nM
T3 sequence (whole entry): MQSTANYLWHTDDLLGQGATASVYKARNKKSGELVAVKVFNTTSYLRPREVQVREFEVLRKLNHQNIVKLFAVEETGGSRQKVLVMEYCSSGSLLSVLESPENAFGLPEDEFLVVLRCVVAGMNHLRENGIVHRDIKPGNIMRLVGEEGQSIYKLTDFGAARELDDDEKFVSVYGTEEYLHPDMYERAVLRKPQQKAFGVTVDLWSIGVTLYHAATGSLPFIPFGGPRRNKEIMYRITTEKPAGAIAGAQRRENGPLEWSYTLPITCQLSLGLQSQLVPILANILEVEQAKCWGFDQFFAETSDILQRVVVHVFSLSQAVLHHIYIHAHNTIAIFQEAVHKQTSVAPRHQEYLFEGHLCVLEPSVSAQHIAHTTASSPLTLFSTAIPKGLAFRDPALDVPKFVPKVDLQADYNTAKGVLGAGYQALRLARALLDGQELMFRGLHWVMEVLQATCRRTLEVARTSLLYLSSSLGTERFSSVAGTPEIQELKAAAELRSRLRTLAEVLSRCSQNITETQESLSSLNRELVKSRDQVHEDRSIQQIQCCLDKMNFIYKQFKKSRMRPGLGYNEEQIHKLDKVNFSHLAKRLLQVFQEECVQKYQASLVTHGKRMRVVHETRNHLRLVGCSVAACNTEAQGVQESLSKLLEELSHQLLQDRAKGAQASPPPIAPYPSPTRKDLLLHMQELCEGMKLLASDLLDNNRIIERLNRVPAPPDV

[8] = target: Histamine H2 receptor (Homo sapiens) (UniProt P25021); details: Compound concentration 10.0 uM
Sequence of Histamine H2 receptor (Homo sapiens) (P25021 whole entry): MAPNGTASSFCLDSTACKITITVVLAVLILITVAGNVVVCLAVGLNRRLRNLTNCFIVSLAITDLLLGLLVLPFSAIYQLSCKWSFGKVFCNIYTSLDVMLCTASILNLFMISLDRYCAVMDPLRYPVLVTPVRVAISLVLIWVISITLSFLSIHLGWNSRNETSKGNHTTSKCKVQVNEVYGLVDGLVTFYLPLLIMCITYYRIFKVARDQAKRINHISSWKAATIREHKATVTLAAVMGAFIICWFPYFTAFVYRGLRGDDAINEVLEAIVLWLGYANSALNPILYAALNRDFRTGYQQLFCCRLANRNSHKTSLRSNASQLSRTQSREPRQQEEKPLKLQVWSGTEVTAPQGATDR

Sequence of Serine/threonine-protein kinase PAK 4 (Homo sapiens) (O96013 whole entry, looked up): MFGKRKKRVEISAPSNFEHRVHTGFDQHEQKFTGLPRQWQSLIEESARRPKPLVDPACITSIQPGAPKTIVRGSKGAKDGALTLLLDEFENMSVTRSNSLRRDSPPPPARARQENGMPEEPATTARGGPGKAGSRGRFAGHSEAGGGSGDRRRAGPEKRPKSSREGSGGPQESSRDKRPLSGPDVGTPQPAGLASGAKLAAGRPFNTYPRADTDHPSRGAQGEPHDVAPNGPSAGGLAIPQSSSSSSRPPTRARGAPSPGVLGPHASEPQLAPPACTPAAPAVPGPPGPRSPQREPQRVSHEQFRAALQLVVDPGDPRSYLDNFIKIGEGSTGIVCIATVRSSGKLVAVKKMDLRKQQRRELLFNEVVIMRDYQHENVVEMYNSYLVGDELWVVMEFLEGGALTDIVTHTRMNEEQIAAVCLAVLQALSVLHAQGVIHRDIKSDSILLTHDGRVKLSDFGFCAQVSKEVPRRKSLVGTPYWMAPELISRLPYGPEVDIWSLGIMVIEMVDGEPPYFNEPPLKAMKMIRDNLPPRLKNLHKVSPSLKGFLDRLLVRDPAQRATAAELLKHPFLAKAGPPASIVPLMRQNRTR

Cc1nc(C2CCN(C(=O)c3ccc(OC(F)(F)F)cc3N)CC2)c2ncc(N3CCN(C)CC3)cc2n1 [BAY-693]
inactive: residual activity [1] 100% | residual activity [2] 95% | residual activity [3] 88% | residual activity [4] 100% | residual activity [5] 92% | residual activity [6] 100% | residual activity [7] 97% | inhibition [8] 23.6%

CN1CCN(c2cnc3c(C4CCN(C(=O)c5ccc(OC(F)(F)F)cc5N)CC4)ncnc3c2)CC1 [BAY-885]
inactive: residual activity [1] 91% | residual activity [2] 100% | residual activity [3] 100% | residual activity [4] 91% | residual activity [5] 100% | residual activity [6] 100% | residual activity [7] 98% | inhibition [8] 31.2%
